# Columns and labels:
# Assay type in all cases: in vivo
# [1] = tested on: Myzus persicae (Green Peach Aphid); assay: Myzus persicae systemic activity; conditions: 144 h, test rate 24 ppm, roots of pea seedlings in test solution, 6 days
# Experimental: Roots of pea seedlings infested with an aphid population of mixed ages were placed directly into aqueous test solutions prepared from 10,000 DMSO stock solutions. The samples were assessed for mortality 6 days after placing seedlings into test solutions.
# [2] = tested on: Myzus persicae (Green Peach Aphid); assay: Myzus persicae feeding activity (sucrose solution, Parafilm); conditions: 120 h, test rate 12.5 ppm, in sucrose solution, 5 days after infestation
# Experimental: Test compounds prepared from 10,000 ppm DMSO stock solutions were applied by pipette into 24-well microtiter plates and mixed with sucrose solution. The plates were closed with a stretched Parafilm. A plastic stencil with 24 holes was placed onto the plate and infested pea seedlings were placed directly on the Parafilm. The infested plate was closed with a gel blotting paper and another plastic stencil and then turned upside down. The samples were assessed for mortality 5 days after infestation.
# [3] = tested on: Chrysodeixis includens (Soybean Looper); assay: Chrysodeixis includens larvicide, feeding/contact; conditions: 120 h, test rate 50 ppm, L2 larvae on soybean leaves, 5 days after infestation, read-out: control in at least one of the two categories (mortality or growth inhibition)
# Experimental: Soybean plants were treated in a spray chamber, cut off and placed into petri dishes containing wet filter paper. 1 d after application leaves were infested with 5 L2 larvae and covered with a fabric filter and plastic lids. 5 days after infestation the samples were assessed for mortality and growth inhibition.
# [4] = tested on: Nilaparvata lugens (Brown Plant Hopper); assay: Nilaparvata lugens larvicide, systemic into water; conditions: 168 h, test rate 12.5 ppm, into nutritive solution of rice plants, N3 nymphs, 7 days after infestation, read-out: control in at least one of the two categories (mortality or growth inhibition)
# Experimental: Rice plants cultivated in a nutritive solution were treated with the diluted test solutions into nourishing cultivation system. 1 day after application plants were infested with ˜20 N3 nymphs. 7 days after infestation samples were assessed for mortality and growth inhibition.
# [5] = tested on: Chilo suppressalis (Striped Stem Borer); assay: Chilo suppressalis larvicide, feeding/contact; conditions: 120 h, test rate 200 ppm, L2 larvae on sprayed rice plants, 5 days after application
# Experimental: Rice plants were treated in a spray chamber, cut off and placed into petri dishes containing wet filter paper. 10 L2 larvae were infested and covered up with a cotton filter and a lid. 5 days after application samples were assessed for mortality.
# [6] = tested on: Aedes aegypti (Yellow Fever Mosquito); assay: whole plant or invertebrate; conditions: test rate 200 ppm, adult females, mortality assessed at 24 and 48 hours
# Experimental: (§1) Test solutions, at an application rate of 200 ppm in ethanol, were applied to 12 well tissue culture plates. Once the deposits were dry, five, two to five day old adult female Aedes aegypti were added to each well, and sustained with a 10% sucrose solution in a cotton wool plug. Assessment of knockdown was made one hour after introduction, and mortality was assessed at 24 and 48 hours after introduction.
# [7] = tested on: Anopheles stephensi (Indian Malaria Mosquito); assay: Anopheles stephensi adult contact on treated plates; conditions: test rate 200 ppm, adult females, mortality assessed at 24 and 48 hours
# Experimental: as §1, with “Anopheles stephensi” for “Aedes aegypti”
# [8] = tested on: German cockroaches, Blattella germanica; assay: Cockroach N3 contact bioassay; conditions: 72 h, test rate 100 ppm, third nymphal stage, sprayed, 3 days
# Experimental: (§2) Ten third nymphal stage German cockroaches, Blattella germanica, were placed in a 250 ml plastic drinking cup along with ca. 1 g of compressed rabbit food, and retained with a section of netting. Experimental compounds are diluted to 1000 ppm w/v in acetone, then subsequently to 100 ppm w/v in a 0.1% Tween solution in de-ionised water. 1 ml of the experimental solution is sprayed with a Potter tower directly through the retaining net onto the cockroach nymphs. A damp cotton wool ball is placed on top of the retaining net, and the cups held at 24° C. and ambient humidity. Assessment of mortality is made three days after application.
# [9] = tested on: house flies, Musca domestica; assay: House fly adult contact bioassay; conditions: 72 h, test rate 100 ppm, adult females, sprayed, 3 days
# Experimental: as §2, with “adult female house flies, Musca domestica, are” for “third nymphal stage German cockroaches, Blattella germanica, were”, “a sugar cube,” for “ca. 1 g of compressed rabbit food,”, “adult house flies.” for “cockroach nymphs.”
# [10] = tested on: German cockroaches, Blattella germanica; assay: Cockroach bait bioassay; conditions: 72 h, test rate 1000 ppm in peanut butter bait, adults, 3 days
# Experimental: The experimental compound is diluted in acetone to 1000 ppm w/v. 1 ml of this solution is added to 1 g of smooth peanut butter in a 15 ml glass vial and thoroughly mixed. This mixture is left in a fume cupboard for 24 hours until all the acetone has evaporated. It is then mixed again to ensure a homogeneous distribution of the experimental compound with a concentration of 1000 ppm w/w.
# Ten adult male and ten adult female German cockroaches, Blattella germanica, are placed in a plastic arena approximately 20 cm in diameter. Also placed in each arena are a simple harbourage constructed from concertinaed card, and a water source. After the cockroaches have acclimatised for 24 hours the glass vial containing 1 g of the treated bait is introduced.
# Assessment of cockroach mortality is made 3 days after bait introduction.
smiles,measurement,setting,value
CC(c1ncnn1-c1ncccn1)N(CC1CC1)C(=O)c1cc(C(F)(F)F)cc(C(F)(F)F)c1 (centres unmarked) [Compound 3],mortality at 24 ppm,[1],≥ 80%
same,mortality at 12.5 ppm,[2],≥ 80%
same,percent control (mortality or growth inhibition) at 50 ppm,[3],≥ 80%
same,percent control (mortality or growth inhibition) at 12.5 ppm,[4],≥ 80%
same,mortality at 200 ppm,[5],≥ 80%
same,mortality at 200 ppm,[6],≥ 60%
same,mortality at 200 ppm,[7],≥ 60%
same,mortality at 100 ppm,[8],≥ 80%
same,mortality at 100 ppm,[9],≥ 80%
same,mortality at 1000 ppm,[10],≥ 80%
CC(NC(=O)c1cc(C(F)(F)F)cc(C(F)(F)F)c1)c1ncnn1-c1ncccn1 (centres unmarked) [Compound 4],mortality at 12.5 ppm,[2],≥ 80%
same,percent control (mortality or growth inhibition) at 12.5 ppm,[4],≥ 80%
same,mortality at 100 ppm,[8],≥ 80%
same,mortality at 100 ppm,[9],≥ 80%
same,mortality at 1000 ppm,[10],≥ 80%
CC(c1ncnn1-c1ncccn1)N(C)C(=O)c1cc(C(F)(F)F)cc(C(F)(F)F)c1 (centres unmarked) [Compound 1],mortality at 24 ppm,[1],≥ 80%
same,mortality at 12.5 ppm,[2],≥ 80%
same,percent control (mortality or growth inhibition) at 50 ppm,[3],≥ 80%
same,percent control (mortality or growth inhibition) at 12.5 ppm,[4],≥ 80%
same,mortality at 200 ppm,[5],≥ 80%

# — patent US20210068395A1, “METHODS OF APPLYING ONE OR MORE CERTAIN HETEROARYL-1,2,4-TRIAZOLE AND HETEROARYL-TETRAZOLE COMPOUNDS TO CONTROL DAMAGE ON PLANTS, PROPAGATION MATERIAL THEREOF, AND PLANT DERIVED PRODUCTS” (SYNGENTA CROP PROTECTION AG, priority 2018, published 2021)
